Patent US9656988B2 (Pharmacyclics LLC, priority 2013, dated 2017)
pIC50: −log10 of the molar value. Read-outs that look alike come from different tables or passages of the source.

Target: BTK (Homo sapiens (Human), UniProt Q06187)
Assay: Btk in vitro inhibitory activity (one of Method A TR-FRET, Method B electrophoretic mobility shift, Method C radiometric filter binding)
Assay type: biochemical
[1] = determined using one of the methods of Example 355a, 355b and 355c, read-out: BTK IC50

Sequence of BTK (Q06187 whole entry): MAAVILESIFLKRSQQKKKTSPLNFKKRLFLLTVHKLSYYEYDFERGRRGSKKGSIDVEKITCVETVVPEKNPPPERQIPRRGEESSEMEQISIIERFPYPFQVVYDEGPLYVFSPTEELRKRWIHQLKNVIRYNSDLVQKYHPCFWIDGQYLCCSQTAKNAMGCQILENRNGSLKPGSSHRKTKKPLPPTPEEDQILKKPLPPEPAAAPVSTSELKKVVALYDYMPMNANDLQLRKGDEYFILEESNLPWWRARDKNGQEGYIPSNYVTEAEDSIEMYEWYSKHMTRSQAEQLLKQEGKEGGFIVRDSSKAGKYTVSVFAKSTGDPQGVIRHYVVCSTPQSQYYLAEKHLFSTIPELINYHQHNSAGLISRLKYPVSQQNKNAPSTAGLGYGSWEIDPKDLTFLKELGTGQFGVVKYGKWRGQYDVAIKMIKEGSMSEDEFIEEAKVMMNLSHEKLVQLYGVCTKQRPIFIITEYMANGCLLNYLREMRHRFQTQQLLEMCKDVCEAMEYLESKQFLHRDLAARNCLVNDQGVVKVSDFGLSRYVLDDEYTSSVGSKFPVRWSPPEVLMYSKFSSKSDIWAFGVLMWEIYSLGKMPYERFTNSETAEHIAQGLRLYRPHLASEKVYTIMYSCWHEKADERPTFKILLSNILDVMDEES

SMILES	pIC50 [1]	pIC50 (read-out: Btk (IC50))	pIC50 (Btk (IC50))	pIC50
NC(=O)c1ncc(N2CCC[C@@H](N3Cc4ccccc4C3=O)C2)nc1Nc1ccc(C2CCN(C3CCCC3)CC2)cc1 [Example 307, (R)-3-(4-(1-cyclopentylpiperidin-4-yl)phenylamino)-5-(3-(1-oxoisoindolin-2-yl)piperidin-1-yl)pyrazine-2-carboxamide]	> 8.00	> 8.00	–	–
NC(=O)c1ncc(N2CCC[C@@H](NC(=O)C3CCCC3)C2)nc1Nc1ccc(C2CCN(C3CC3)CC2)cc1 [Example 310, (R)-5-(3-(cyclopentanecarboxamido)piperidin-1-yl)-3-(4-(1-cyclopropylpiperidin-4-yl)phenylamino)pyrazine-2-carboxamide]	7.00 to 8.00	7.00 to 8.00	–	–
NC(=O)c1ncc(N2CCC[C@@H](NC(=O)c3ccc(Cl)s3)C2)nc1Nc1ccc(C2CCN(C3CC3)CC2)cc1 [Example 314, (R)-5-(3-(5-chlorothiophene-2-carboxamido)piperidin-1-yl)-3-(4-(1-cyclopropylpiperidin-4-yl)phenylamino)pyrazine-2-carboxamide]	7.00 to 8.00	–	–	–
NC(=O)c1ncc(N2CCC[C@@H](NC(=O)c3cc4ccccc4s3)C2)nc1Nc1ccc(C2CCN(C3CC3)CC2)cc1 [Example 315, (R)-5-(3-(benzo[b]thiophene-2-carboxamido)piperidin-1-yl)-3-(4-(1-cyclopropylpiperidin-4-yl)phenylamino)pyrazine-2-carboxamide]	7.00 to 8.00	–	–	7.00 to 8.00
NC(=O)c1ncc(N2CCC[C@@H](NC(=O)c3cc4c(s3)CCCC4)C2)nc1Nc1ccc(C2CCN(C3CC3)CC2)cc1 [Example 316, (R)-3-(4-(1-cyclopropylpiperidin-4-yl)phenylamino)-5-(3-(4,5,6,7-tetrahydrobenzo[b]thiophene-2-carboxamido)piperidin-1-yl)pyrazine-2-carboxamide]	> 8.00	–	–	–
NC(=O)c1ncc(N2CCC[C@@H](NC(=O)c3ccc4ccccc4c3)C2)nc1Nc1ccc(C2CCN(C3CC3)CC2)cc1 [Example 317, (R)-5-(3-(2-naphthamido)piperidin-1-yl)-3-(4-(1-cyclopropylpiperidin-4-yl)phenylamino)pyrazine-2-carboxamide]	7.00 to 8.00	–	–	–
NC(=O)c1ncc(N2CCC[C@@H](NC(=O)c3ccc(-c4ccccc4)cc3)C2)nc1Nc1ccc(C2CCN(C3CC3)CC2)cc1 [Example 318, (R)-5-(3-biphenyl-4-ylcarboxamidopiperidin-1-yl)-3-(4-(1-cyclopropylpiperidin-4-yl)phenylamino)pyrazine-2-carboxamide]	7.00 to 8.00	–	–	–
NC(=O)c1ncc(N2CCC[C@@H](NC(=O)c3ccc(-c4ccccc4)nc3)C2)nc1Nc1ccc(C2CCN(C3CC3)CC2)cc1 [Example 319, (R)-3-(4-(1-cyclopropylpiperidin-4-yl)phenylamino)-5-(3-(6-phenylnicotinamido)piperidin-1-yl)pyrazine-2-carboxamide]	> 8.00	–	–	–
NC(=O)c1ncc(N2CCCC[C@@H](NC(=O)C3CC3)C2)nc1Nc1ccc(C2CCN(C3CCCC3)CC2)cc1 [Example 328, (R)-3-(4-(1-cyclopentylpiperidin-4-yl)phenylamino)-5-(3-(cyclopropanecarboxamido)azepan-1-yl)pyrazine-2-carboxamide]	> 8.00	> 8.00	–	–
CN(C)C(=O)N[C@@H]1CCCN(c2nnc(C(N)=O)c(Nc3ccc(C4CCN(C5CCCC5)CC4)cc3)n2)C1 [Example 329, (R)-5-(4-(1-cyclopentylpiperidin-4-yl)phenylamino)-3-(3-(3,3-dimethylureido)piperidin-1-yl)-1,2,4-triazine-6-carboxamide]	> 8.00	–	> 8.00	–
CCC(=O)N[C@@H]1CCCN(c2nnc(C(N)=O)c(Nc3ccc(C4CCN(C5CCCC5)CC4)cc3)n2)C1 [Example 330, (R)-5-(4-(1-cyclopentylpiperidin-4-yl)phenylamino)-3-(3-propionamidopiperidin-1-yl)-1,2,4-triazine-6-carboxamide]	> 8.00	> 8.00	–	–
COc1ccc(C(=O)N[C@@H]2CCCN(c3nnc(C(N)=O)c(Nc4ccc(N5CCN(C6CCCC6)CC5)cc4)n3)C2)cc1 [Example 331, (R)-5-(4-(4-cyclopentylpiperazin-1-yl)phenylamino)-3-(3-(4-methoxybenzamido)piperidin-1-yl)-1,2,4-triazine-6-carboxamide]	> 8.00	–	–	–
COc1ccc(C(=O)N[C@@H]2CCCN(c3nnc(C(N)=O)c(Nc4ccc(N5CCC(C(=O)N(C)C)CC5)cc4)n3)C2)cc1 [Example 332, (R)-5-(4-(4-(dimethylcarbamoyl)piperidin-1-yl)phenylamino)-3-(3-(4-methoxybenzamido)piperidin-1-yl)-1,2,4-triazine-6-carboxamide]	> 8.00	–	–	–
COc1ccc(C(=O)N[C@@H]2CCCN(c3nnc(C(N)=O)c(Nc4ccc(C5CCNCC5)cc4)n3)C2)cc1 [Example 333, (R)-3-(3-(4-methoxybenzamido)piperidin-1-yl)-5-(4-(piperidin-4-yl)phenylamino)-1,2,4-triazine-6-carboxamide]	> 8.00	–	–	–
COc1ccc(C(=O)N[C@@H]2CCCN(c3nnc(C(N)=O)c(Nc4ccc(C5CCN(C6CCCC6)CC5)cc4)n3)C2)cc1 [Example 334, (R)-5-(4-(1-cyclopentylpiperidin-4-yl)phenylamino)-3-(3-(4-methoxybenzamido)piperidin-1-yl)-1,2,4-triazine-6-carboxamide]	> 8.00	–	–	–
NC(=O)c1nnc(N2CCC[C@@H](NC(=O)N3CCCCC3)C2)nc1Nc1ccc(C2CCNCC2)cc1 [Example 335, (R)-5-(4-(piperidin-4-yl)phenylamino)-3-(3-(piperidine-1-carboxamido)piperidin-1-yl)-1,2,4-triazine-6-carboxamide]	> 8.00	–	–	–

More lines, main results first:

pIC50 [1]	pIC50 (read-out: Btk (IC50))	pIC50 (Btk (IC50))	SMILES	pIC50
> 8.00	> 8.00	–	NC(=O)c1ncc(N2CCC[C@@H](NC(=O)c3cccnc3)C2)nc1Nc1ccc(C2CCN(C3CCCC3)CC2)cc1 [Example 304, (R)-3-(4-(1-cyclopentylpiperidin-4-yl)phenylamino)-5-(3-(nicotinamido)piperidin-1-yl)pyrazine-2-carboxamide]	–
> 8.00	> 8.00	–	NC(=O)c1ncc(N2CCC[C@@H](NC(=O)c3cncc(F)c3)C2)nc1Nc1ccc(C2CCN(C3CCCC3)CC2)cc1 [Example 305, (R)-3-(4-(1-cyclopentylpiperidin-4-yl)phenylamino)-5-(3-(5-fluoronicotinamido)piperidin-1-yl)pyrazine-2-carboxamide]	–
6.00 to 7.00	6.00 to 7.00	–	NC(=O)c1ncc(N2CCC[C@@H](NC(=O)C3CC4(CCC4)C3)C2)nc1Nc1ccc(C2CCN(C3CC3)CC2)cc1 [Example 309, 3-(4-(1-cyclopropylpiperidin-4-yl)phenylamino)-5-((3R)-3-(spiro[3.3]heptane-2-carboxamido)piperidin-1-yl)pyrazine-2-carboxamide]	–
> 8.00	> 8.00	–	NC(=O)c1ncc(N2CCC[C@@H](NC(=O)c3ccc(Cl)cc3)C2)nc1Nc1ccc(C2CCN(C3CC3)CC2)cc1 [Example 311, (R)-5-(3-(4-chlorobenzamido)piperidin-1-yl)-3-(4-(1-cyclopropylpiperidin-4-yl)phenylamino)pyrazine-2-carboxamide]	–
> 8.00	> 8.00	–	NC(=O)c1ncc(N2CCC[C@@H](NC(=O)c3cccc(Cl)c3)C2)nc1Nc1ccc(C2CCN(C3CC3)CC2)cc1 [Example 312, (R)-5-(3-(3-chlorobenzamido)piperidin-1-yl)-3-(4-(1-cyclopropylpiperidin-4-yl)phenylamino)pyrazine-2-carboxamide]	–
> 8.00	> 8.00	–	NC(=O)c1ncc(N2CCC[C@@H](NC(=O)c3cncc(Cl)c3)C2)nc1Nc1ccc(C2CCN(C3CC3)CC2)cc1 [Example 313, (R)-5-(3-(5-chloronicotinamido)piperidin-1-yl)-3-(4-(1-cyclopropylpiperidin-4-yl)phenylamino)pyrazine-2-carboxamide]	–
> 8.00	> 8.00	–	NC(=O)c1ncc(N2CCC[C@@H](NC(=O)c3ccc(F)cc3)C2)nc1Nc1ccc(C2CCN(C3CCCC3)CC2)cc1 [Example 320, (R)-3-(4-(1-cyclopentylpiperidin-4-yl)phenylamino)-5-(3-(4-fluorobenzamido)piperidin-1-yl)pyrazine-2-carboxamide]	–
6.00 to 7.00	6.00 to 7.00	–	CN(C(=O)N[C@@H]1CCCN(c2cnc(C(N)=O)c(Nc3ccc(F)cc3)n2)C1)c1cc(Cl)cc(C(F)(F)F)c1 [Example 322, (R)-5-(3-(3-(3-chloro-5-(trifluoromethyl)phenyl)-3-methylureido)piperidin-1-yl)-3-(4-fluorophenylamino)pyrazine-2-carboxamide]	–
6.00 to 7.00	6.00 to 7.00	–	CN(C(=O)N[C@@H]1CCCN(c2cnc(C(N)=O)c(Nc3ccc(C4(C#N)CC4)cc3)n2)C1)c1cc(Cl)cc(C(F)(F)F)c1 [Example 323, (R)-5-(3-(3-(3-chloro-5-(trifluoromethyl)phenyl)-3-methylureido)piperidin-1-yl)-3-(4-(1-cyanocyclopropyl)phenylamino)pyrazine-2-carboxamide]	–
7.00 to 8.00	7.00 to 8.00	–	CN(C(=O)N[C@@H]1CCCN(c2cnc(C(N)=O)c(Nc3ccc(C4(C(N)=O)CC4)cc3)n2)C1)c1cc(Cl)cc(C(F)(F)F)c1 [Example 324, (R)-3-(4-(1-carbamoylcyclopropyl)phenylamino)-5-(3-(3-(3-chloro-5-(trifluoromethyl)phenyl)-3-methylureido)piperidin-1-yl)pyrazine-2-carboxamide]	–
> 8.00	> 8.00	–	NC(=O)c1ncc(N2CCC[C@@H](NC(=O)c3ccc4nccn4c3)C2)nc1Nc1ccc(C2CCOCC2)cc1 [Example 325, (R)—N-(1-(5-carbamoyl-6-(4-(tetrahydro-2H-pyran-4-yl)phenylamino)pyrazin-2-yl)piperidin-3-yl)imidazo[1,2-a]pyridine-6-carboxamide]	–
> 8.00	> 8.00	–	CN(C)C(=O)N[C@@H]1CCCCN(c2cnc(C(N)=O)c(Nc3ccc(C4CCN(C5CCCC5)CC4)cc3)n2)C1 [Example 327, (R)-3-(4-(1-cyclopentylpiperidin-4-yl)phenylamino)-5-(3-(3,3-dimethylureido)azepan-1-yl)pyrazine-2-carboxamide]	–
